Experimental data from patent EP1392697B1, “ANTIDEPRESSANT AZAHETEROCYCLYMETHYL DERIVATIVES OF 2,3-DIHYDRO-1,4-DIOXINO 2,3-F]QUINOLINE” (Wyeth, priority 2001, dated 2002).
pIC50, pKi: −log10 of the molar value.

Columns and labels:
serotonin transporter = experiment: 3H-paroxetine displacement binding, serotonin transporter affinity; conditions: displacement of 3H-paroxetine from male rat frontal cortical membranes; read-out: 5-HT Transporter Affinity KI
human 5HT1A receptors = experiment: [3H] 8-OH-DPAT displacement binding, 5HT1A receptor affinity; conditions: displacement of [3H] 8-OH-DPAT; CHO cells stably transfected with human 5HT1A receptors
From the text: 8-OH-DPAT (dipropylamino-tetralin) from the 5HT1A serotonin receptor following a modification of the procedure of Hall et al., J. Neurochem.

[1] = target: cloned human 5HT1A receptors; experiment: 35S-GTPγS binding assay, 5HT1A antagonist activity; format: biochemical; conditions: reversal of the effects of the standard agonist 8-OH-DPAT, read-out: 5HT1A Function IC50
From the text: Agonists produce an increase in binding whereas antagonists produce no increase but rather reverse the effects of the standard agonist 8-OH-DPAT. The test compound's maximum inhibitory effect is represented as the Imax, while its potency is defined by the IC50.

SMILES | pKi (serotonin transporter) | pKi (human 5HT1A receptors) | pIC50 [1]
Cc1ccc2c3c(ccc2n1)OCC(CN1CCC(Cc2c[nH]c4cc(Cl)ccc24)CC1)O3 (stereo not drawn) [Example 20, 2-({4-[(6-Chloro-1H-indol-3-yl)methyl]piperidin-1-yl}methyl)-8-methyl-2,3-dihydro[1,4]dioxino[2,3-f]quinoline] | 8.15 | 7.59 | 6.18
CCc1cccc2c(CC3CCN(CC4COc5ccc6nc(C)ccc6c5O4)CC3)c[nH]c12 (stereo not drawn) [Example 19, 2-({4-[(7-Ethyl-1H-indol-3-yl)methyl]piperidin-1-yl}methyl)-8-methyl-2,3-dihydro[1,4]dioxino[2,3-f]quinoline] | 7.96 | 8.13 | 6.77
